Results on 36 molecules are retold here after patent US20100311741A1, “Bicyclosulfonyl Acid (BCSA) Compounds and Their Use as Therapeutic Agents” (INHIBOX LTD., priority 2007, published 2010).

In general, melting point refers to the temperature of the solid-liquid transition.

Molecule `COc1cccc2c1C(CC(=O)NO)N(c1ccccc1)S2(=O)=O` (stereo not drawn) [Compound 54.1, 2-(4-Methoxy-1,1-dioxo-2-phenyl-2,3-dihydro-1H-benzo[d]isothiazol-3-yl)-N-hydroxyacetamide] registered a melting point of 188 to 190 °C.

`O=C(CC1c2c(Cl)cccc2S(=O)(=O)N1c1ccccc1)NO` (stereo not drawn) [Compound 54.2, 2-(4-Chloro-1,1-dioxo-2-phenyl-2,3-dihydro-1H-benzo[d]isothiazol-3-yl)-N-hydroxyacetamide] returned a melting point of 204 to 206 °C.

Consider `O=C(CC1c2cccc(C(F)(F)F)c2S(=O)(=O)N1c1ccccc1)NO` (stereo not drawn) [Compound 54.3], for which the melting point was in the range of 187 to 189 °C.

`O=C(CC1c2cccc(Cl)c2S(=O)(=O)N1c1ccccc1)NO` (stereo not drawn) [Compound 54.7, 2-(7-Chloro-1,1-dioxo-2-phenyl-2,3-dihydro-1H-benzo[d]isothiazol-3-yl)-N-hydroxyacetamide]: the melting point was > 188 °C (dec.).

With `COc1cccc2c1S(=O)(=O)N(c1ccccc1)C2CC(=O)NO` (stereo not drawn) [Compound 54.10, (7-Methoxy-1,1-dioxo-2-phenyl-2,3-dihydro-1H-benzo[d]isothiazol-3-yl)-N-hydroxyacetamide], the melting point is > 161 °C (dec.).

Take `COc1cc(Cl)cc2c1S(=O)(=O)N(c1ccccc1)C2CC(=O)NO` (stereo not drawn) [Compound 54.11, (5-Chloro-7-Methoxy-1,1-dioxo-2-phenyl-2,3-dihydro-1H-benzo[d]isothiazol-3-yl)-N-hydroxyacetamide]: the melting point is > 170 °C (dec.).

For `COc1ccc2c(c1Cl)C(CC(=O)NO)N(c1ccccc1)S2(=O)=O` (stereo not drawn) [Compound 54.12, (4-Chloro-5-Methoxy-1,1-dioxo-2-phenyl-2,3-dihydro-1H-benzo[d]isothiazol-3-yl)-N-hydroxyacetamide], the melting point was 184 to 188 °C (dec.).

`O=C(NO)C1c2ccccc2S(=O)(=O)N1c1ccccc1` (stereo not drawn) [Compound 62.1, 1,1-Dioxo-2-phenyl-2,3-dihydro-1H-benzo[d]isothiazole-3-carboxylic acid hydroxyamide]: the melting point was in the range of 188 to 191 °C.

As to `O=C(NO)C1c2c(Cl)cccc2S(=O)(=O)N1c1ccccc1` (stereo not drawn) [Compound 62.2, 4-Chloro-1,1-dioxo-2-phenyl-2,3-dihydro-1H-benzo[d]isothiazole-3-carboxylic acid hydroxyamide], the melting point was 167 to 170 °C.

On to `COc1cccc(N2C(CC(=O)NO)c3ccccc3S2(=O)=O)c1` (stereo not drawn) [Compound (5.7), 2-[2-(3-Methoxyphenyl)-1,1-dioxo-2,3-dihydro-1H-benzo[d]isothiazol-3-yl]-N-hydroxyacetamide], for which the melting point was in the range of 147 to 148 °C.

In turn, `COc1ccc(N2C(CC(=O)NO)c3ccccc3S2(=O)=O)cc1` (stereo not drawn) [Compound (5.8), 2-[2-(4-Methoxyphenyl)-1,1-dioxo-2,3-dihydro-1H-benzo[d]isothiazol-3-yl]-N-hydroxyacetamide] showed a melting point of 185 to 186 °C.

Molecule `O=C(CC1c2ccccc2S(=O)(=O)N1c1cccc(Oc2ccccc2)c1)NO` (stereo not drawn) [Compound (5.9), 2-[2-(3-Phenoxyphenyl)-1,1-dioxo-2,3-dihydro-1H-benzo[d]isothiazol-3-yl]-N-hydroxyacetamide] displayed a melting point of 181 to 182 °C.

For `O=C(CC1c2ccccc2S(=O)(=O)N1c1ccc(Cl)cc1)NO` (stereo not drawn) [Compound (5.10), 2-[2-(4-Chlorophenyl)-1,1-dioxo-2,3-dihydro-1H-benzo[d]isothiazol-3-yl]-N-hydroxyacetamide], the melting point was 184 to 185 °C.

`CSc1ccc(N2C(CC(=O)NO)c3ccccc3S2(=O)=O)cc1` (stereo not drawn) [Compound (5.20), 2-[1,1-Dioxo-2-(4-methylsulfanylphenyl)-2,3-dihydro-1H-benzo[d]isothiazol-3-yl]-N-hydroxyacetamide]: the melting point was 197 to 198 °C (dec.).

`O=C(CC1c2ccccc2S(=O)(=O)N1c1ccc(-c2ccccc2)cc1)NO` (stereo not drawn) [Compound (5.23), 2-(2-Biphenyl-4-yl-1,1-dioxo-2,3-dihydro-1H-benzo[d]isothiazol-3-yl)-N-hydroxyacetamide]: the melting point is 207 to 208 °C (dec.).

The molecule `O=C(CC1c2ccccc2S(=O)(=O)N1c1ccc(Oc2ccccc2)cc1)NO` (stereo not drawn) [Compound (5.24), 2-[1,1-Dioxo-2-(4-phenoxy-phenyl)-2,3-dihydro-1H-benzo[d]isothiazol-3-yl]-N-hydroxyacetamide] registered a melting point of 174 to 175 °C.

`O=C(CC1c2ccccc2S(=O)(=O)N1c1ccc(OCc2ccccc2)cc1)NO` (stereo not drawn) [Compound (5.25), 2-[2-(4-Benzyloxy-phenyl)-1,1-dioxo-2,3-dihydro-1H-benzo[d]isothiazol-3-yl]-N-hydroxyacetamide] returned a melting point of 186 to 187 °C.

`O=C(CC1c2ccccc2S(=O)(=O)N1c1ccc(-n2cccc2)cc1)NO` (stereo not drawn) [Compound (5.26), 2-[1,1-Dioxo-2-(4-pyrrol-1-yl-phenyl)-2,3-dihydro-1H-benzo[d]isothiazol-3-yl]-N-hydroxyacetamide]: the melting point is 192 to 194 °C (dec.).

For `O=C(CC1c2ccccc2S(=O)(=O)N1c1ccc(-n2ccnc2)cc1)NO` (stereo not drawn) [Compound (5.27), 2-[2-(4-Imidazol-1-yl-phenyl)-1,1-dioxo-2,3-dihydro-1H-benzo[d]isothiazol-3-yl]-N-hydroxyacetamide], the melting point was 199 to 201 °C (dec.).

In the case of `O=C(CC1c2ccccc2S(=O)(=O)N1c1ccc(-n2cncn2)cc1)NO` (stereo not drawn) [Compound (5.28), 2-[1,1-Dioxo-2-(4-[1,2,4]triazol-1-yl-phenyl)-2,3-dihydro-1H-benzo[d]isothiazol-3-yl]-N-hydroxyacetamide], the melting point was 205 to 207 °C (dec.).

As for `O=C(CC1c2ccccc2S(=O)(=O)N1c1ccc(-c2cnco2)cc1)NO` (stereo not drawn) [Compound (5.29), 2-[2-(4-Oxazol-5-yl-phenyl)-1,1-dioxo-2,3-dihydro-1H-benzo[d]isothiazol-3-yl]-N-hydroxyacetamide], the melting point is 138 to 140 °C (dec.).

On to `Cc1nc(-c2ccc(N3C(CC(=O)NO)c4ccccc4S3(=O)=O)cc2)cs1` (stereo not drawn) [Compound (5.30), 2-{2-[4-(2-Methylthiazol-4-yl)phenyl]-1,1-dioxo-2,3-dihydro-1H-benzo[d]isothiazol-3-yl}-N-hydroxyacetamide], for which the melting point is 179 to 181 °C (dec.).

On to `CN(C)c1ccc(N2C(CC(=O)NO)c3ccccc3S2(=O)=O)cc1` (stereo not drawn) [Compound (5.31), 2-[2-(4-Dimethylaminophenyl)-1,1-dioxo-2,3-dihydro-1H-benzo[d]isothiazol-3-yl]-N-hydroxyacetamide], for which the melting point lay in the range of 185 to 186 °C.

For the molecule `O=C(CC1c2ccccc2S(=O)(=O)N1c1ccc(N2CCOCC2)cc1)NO` (stereo not drawn) [Compound (5.32), 2-[2-(4-Morpholin-4-ylphenyl)-1,1-dioxo-2,3-dihydro-1H-benzo[d]isothiazol-3-yl]-N-hydroxyacetamide], the melting point was 204 to 206 °C.

The molecule `CCOc1ccc(N2C(CC(=O)NO)c3ccccc3S2(=O)=O)cc1` (stereo not drawn) [Compound (5.33), 2-[2-(4-Ethoxyphenyl)-1,1-dioxo-2,3-dihydro-1H-benzo[d]isothiazol-3-yl]-N-hydroxyacetamide] yielded a melting point of 177 to 178 °C.

With `CCCCOc1ccc(N2C(CC(=O)NO)c3ccccc3S2(=O)=O)cc1` (stereo not drawn) [Compound (5.34), 2-[2-(4-Butoxyphenyl)-1,1-dioxo-2,3-dihydro-1H-benzo[d]isothiazol-3-yl]-N-hydroxyacetamide], the melting point is 165 to 166 °C.

For `O=C(CC1c2ccccc2S(=O)(=O)N1c1cccc(F)c1)NO` (stereo not drawn) [Compound (5.36), 2-[2-(3-Fluoro-phenyl)-1,1-dioxo-2,3-dihydro-1H-benzo[d]isothiazol-3-yl]-N-hydroxyacetamide], the melting point was 145 to 147 °C (dec.).

With `O=C(CC1NS(=O)(=O)c2ccccc21)NO` (stereo not drawn) [Compound (5.37), 2-(1,1-Dioxo-2,3-dihydro-1H-benzo[d]isothiazol-3-yl)-N-hydroxyacetamide], the melting point fell in the range of 152 to 154 °C.

`COc1ccc(N2C(CC(=O)NO)c3ccccc3S2(=O)=O)cn1` (stereo not drawn) [Compound (5.40), 2-[2-(6-Methoxy-pyridin-3-yl)-1,1-dioxo-2,3-dihydro-1Hbenzo[d]isothiazol-3-yl]-N-hydroxyacetamide] gave a melting point of 189 to 190 °C.

`O=C(CC1c2ccccc2S(=O)(=O)N1C1CCN(Cc2ccccc2)CC1)NO` (stereo not drawn) [Compound (5.42), 2-[2-(1-Benzylpiperidin-4-yl)-1,1-dioxo-2,3-dihydro-1H-benzo[d]isothiazol-3-yl]-N-hydroxyacetamide]: the melting point lay within 141 to 143 °C.

As to `C=CCOc1ccc(N2C(CC(=O)NO)c3ccccc3S2(=O)=O)cc1` (stereo not drawn) [Compound (5.47), 2-[2-(4-Allyloxy-phenyl)-1,1-dioxo-2,3-dihydro-1H-benzo[d]isothiazol-3-yl]-N-hydroxyacetamide], the melting point is 166 to 168 °C (dec.).

As to `O=C(CC1c2ccccc2S(=O)(=O)N1c1ccc(OCc2ccncc2)cc1)NO` (stereo not drawn) [Compound (5.48), 2-{1,1-Dioxo-2-[4-(pyridin-4-ylmethoxy)phenyl]-2,3-dihydro-1H-benzo[d]isothiazol-3-yl}-N-hydroxyacetamide], the melting point is 212 to 214 °C (dec.).

With `O=C(CC1c2ccccc2S(=O)(=O)N1c1ccc(OCc2ccccn2)cc1)NO` (stereo not drawn) [Compound (5.50), 2-{1,1-Dioxo-2-[4-(pyridin-2-ylmethoxy)phenyl]-2,3-dihydro-1H-benzo[d]isothiazol-3-yl}-N-hydroxyacetamide], the melting point was > 170 °C (dec.).

Regarding `CCC#CCOc1ccc(N2C(CC(=O)NO)c3ccccc3S2(=O)=O)cc1` (stereo not drawn) [Compound (5.52), 2-[1,1-Dioxo-2-(4-pent-2-ynyloxy-phenyl)-2,3-dihydro-1H-benzo[d]isothiazol-3-yl]-N-hydroxyacetamide], the melting point was 135 to 137 °C (dec.).

Turning to `C#CCOc1ccc(N2C(CC(=O)NO)c3ccccc3S2(=O)=O)cc1` (stereo not drawn) [Compound (5.53), 2-[1,1-Dioxo-2-(4-prop-2-ynyloxy-phenyl)-2,3-dihydro-1H-benzo[d]isothiazol-3-yl]-N-hydroxyacetamide], the melting point was 155 to 157 °C (dec.).

In the case of `C#CCCOc1ccc(N2C(CC(=O)NO)c3ccccc3S2(=O)=O)cc1` (stereo not drawn) [Compound (5.54), 2-[2-(4-But-3-ynyloxy-phenyl)-1,1-dioxo-2,3-dihydro-1H-benzo[d]isothiazol-3-yl]-N-hydroxyacetamide], the melting point is 148 to 150 °C (dec.).
